The structures appear in SMILES notation.

This assay relates to MV4-11 cells. Put plainly: Cell proliferation assay MV4;11 (CellTiter-Glo, 72 hours). The class given is cell-based. As to conditions: Homo sapiens; MV4;11 leukemia cell line, 72 hours; read-out: MV4; 11 IC50. The procedure: Compounds were evaluated for its capacity to inhibit the proliferation of the MLLr leukemia cell line MV4-11 that harbors an MLL1-AF4 fusion protein. MV4-11 cells were cultured for 72 hours with limiting dilutions of compounds and viability was measured using CellTiter-Glo.
Compounds were dissolved to obtain as 10 mM solution in DMSO. The stock was diluted 1:5 to the top concentration of 2 mM in 100% DMSO. For IC50 determination, serial 1:3.16 dilutions were prepared in 100% DMSO by diluting 20 μL into 43.5 μL of DMSO for 8 concentrations. Each prepared DMSO solution were further diluted 1:500 in the cell culture media to obtain the 2× dosing solutions. The final concentrations of tested compounds in the cell culture media ranged from 0.632 nM to 2000 nM.
MV4-11 cells were cultured in IMDM with 10% FBS and 1× Penicillin-Streptomycin at 5% CO2 and 37° C. A cell suspension was prepared containing 15,000 cells/ml in the culture medium and 100 μL of this suspension was added per well to a 96-well cell culture plate. Then, 100 μL of 2× dosing media containing test compounds were added bringing the total volume to 200 μL. These cells were cultured for 72 hours at 37° C. and 5% CO2 in a humidified incubator.
After 72 hours, the cultured cells were mixed and 100p L was transferred to a 96-well black plate. Cell Titer Glo (100 μl) was then added to this plate. The plate was mixed with shaking for 15 mins at RT, the luminescence was then measured using Tecan Spark 20M spectrophotometer. Cell Viability (%) was determined by RLU of test/RLU average vehicle control*100 and % max inhibition was determined by 100−(% cell viability remaining at the top concentration of compound).

On to `C[C@@H]1COC[C@H](C)N1C(=O)c1cc(F)ccc1Oc1cncnc1N1CC2(CCN(C[C@@H]3CC[C@@H](NS(=O)(=O)C4CC4)CO3)CC2)C1` [Example 26, N-((3R,6S)-6-((2-(5-(2-((3S,5R)-3,5-Dimethylmorpholine-4-carbonyl)-4-fluorophenoxy)pyrimidin-4-yl)-2,7-diazaspiro[3.5]nonan-7-yl)methyl)tetrahydro-2H-pyran-3-yl)cyclopropanesulfonamide], for which the IC50 is under 0.1 µM.
The value for `C[C@@H]1COC[C@H](C)N1C(=O)c1cc(F)ccc1Oc1cncnc1N1CC2(CCN(C[C@@H]3CC[C@@H](NS(=O)(=O)C4COC4)CO3)CC2)C1` [Example 27, N-((3R,6S)-6-((2-(5-(2-((3S,5R)-3,5-Dimethylmorpholine-4-carbonyl)-4-fluorophenoxy)pyrimidin-4-yl)-2,7-diazaspiro[3.5]nonan-7-yl)methyl)tetrahydro-2H-pyran-3-yl)oxetane-3-sulfonamide] was 0.1 to 1 µM; that for `C[C@@H]1COC[C@@H](C)N1C(=O)c1cc(F)ccc1Oc1cncnc1N1CC2(CCN(C[C@@H]3CC[C@@H](NS(C)(=O)=O)CO3)CC2)C1` [Example 28, N-((3R,6S)-6-((2-(5-(2-((3R,5R)-3,5-Dimethylmorpholine-4-carbonyl)-4-fluorophenoxy)pyrimidin-4-yl)-2,7-diazaspiro[3.5]nonan-7-yl)methyl)tetrahydro-2H-pyran-3-yl)methanesulfonamide] was 0.1 to 1 µM; that for `CCS(=O)(=O)N[C@@H]1CC[C@@H](CN2CCC3(CC2)CN(c2ncncc2Oc2ccc(F)cc2C(=O)N2[C@H](C)COC[C@H]2C)C3)OC1` [Example 29, N-((3R,6S)-6-((2-(5-(2-((3R,5R)-3,5-Dimethylmorpholine-4-carbonyl)-4-fluorophenoxy)pyrimidin-4-yl)-2,7-diazaspiro[3.5]nonan-7-yl)methyl)tetrahydro-2H-pyran-3-yl)ethanesulfonamide] was under 0.1 µM.
Consider `CC(C)S(=O)(=O)N[C@@H]1CC[C@@H](CN2CCC3(CC2)CN(c2ncncc2Oc2ccc(F)cc2C(=O)N2[C@H](C)COC[C@H]2C)C3)OC1` [Example 30, N-((3R,6S)-6-((2-(5-(2-((3R,5R)-3,5-Dimethylmorpholine-4-carbonyl)-4-fluorophenoxy)pyrimidin-4-yl)-2,7-diazaspiro[3.5]nonan-7-yl)methyl)tetrahydro-2H-pyran-3-yl)propane-2-sulfonamide], for which the IC50 is under 0.1 µM.
`C[C@@H]1COC[C@@H](C)N1C(=O)c1cc(F)ccc1Oc1cncnc1N1CC2(CCN(C[C@@H]3CC[C@@H](NS(=O)(=O)C4CC4)CO3)CC2)C1` [Example 31, N-((3R,6S)-6-((2-(5-(2-((3R,5R)-3,5-dimethylmorpholine-4-carbonyl)-4-fluorophenoxy)pyrimidin-4-yl)-2,7-diazaspiro[3.5]nonan-7-yl)methyl)tetrahydro-2H-pyran-3-yl)cyclopropanesulfonamide]: the IC50 was under 0.1 µM.
Consider `C[C@@H]1COC[C@@H](C)N1C(=O)c1cc(F)ccc1Oc1cncnc1N1CC2(CCN(C[C@@H]3CC[C@@H](NS(=O)(=O)C4COC4)CO3)CC2)C1` [Example 32, N-((3R,6S)-6-((2-(5-(2-((3R,5R)-3,5-Dimethylmorpholine-4-carbonyl)-4-fluorophenoxy)pyrimidin-4-yl)-2,7-diazaspiro[3.5]nonan-7-yl)methyl)tetrahydro-2H-pyran-3-yl)oxetane-3-sulfonamide], for which the IC50 is 0.1 to 1 µM.
`CCS(=O)(=O)N[C@@H]1CC[C@@H](CN2CCC3(CC2)CN(c2ncncc2Oc2ccc(F)cc2C(=O)N(C(C)C)[C@H]2CCOC2)C3)OC1` [Example 33, 2-((4-(7-(((2S,5R)-5-(Ethylsulfonamido)tetrahydro-2H-pyran-2-yl)methyl)-2,7-diazaspiro[3.5]nonan-2-yl)pyrimidin-5-yl)oxy)-5-fluoro-N-isopropyl-N-((S)-tetrahydrofuran-3-yl)benzamide]: the IC50 was under 0.1 µM.
With `CCS(=O)(=O)N[C@@H]1CC[C@@H](CN2CCC3(CC2)CN(c2ncncc2Oc2ccc(F)cc2C(=O)N(CC(F)F)C(C)C)C3)OC1` [Example 34, N-(2,2-Difluoroethyl)-2-((4-(7-(((2S,5R)-5-(ethylsulfonamido)tetrahydro-2H-pyran-2-yl)methyl)-2,7-diazaspiro[3.5]nonan-2-yl)pyrimidin-5-yl)oxy)-5-fluoro-N-isopropylbenzamide], the IC50 is under 0.1 µM.
The value for `CCS(=O)(=O)N[C@@H]1CC[C@@H](CN2CCC3(CC2)CN(c2ncncc2Oc2ccc(F)cc2C(=O)N(CCOC)C(C)C)C3)OC1` [Example 35, 2-((4-(7-(((2S,5R)-5-(Ethylsulfonamido)tetrahydro-2H-pyran-2-yl)methyl)-2,7-diazaspiro[3.5]nonan-2-yl)pyrimidin-5-yl)oxy)-5-fluoro-N-isopropyl-N-(2-methoxyethyl)benzamide] was under 0.1 µM.
As for `CCS(=O)(=O)N[C@@H]1CC[C@@H](CN2CCC3(CC2)CN(c2ncncc2Oc2ccc(F)cc2C(=O)N2[C@H](C)CCC[C@@H]2C)C3)OC1` [Example 36, N-((3R,6S)-6-((2-(5-(2-((2S,6R)-2,6-Dimethylpiperidine-1-carbonyl)-4-fluorophenoxy)pyrimidin-4-yl)-2,7-diazaspiro[3.5]nonan-7-yl)methyl)tetrahydro-2H-pyran-3-yl)ethanesulfonamide], the IC50 is under 0.1 µM.
The value for `CCN(C(=O)c1cc(F)ccc1Oc1cncnc1N1CC2(CCN(C[C@@H]3CC[C@@H](NC(=O)NCC(F)(F)F)CO3)CC2)C1)C(C)C` [Example 37, N-Ethyl-5-fluoro-N-isopropyl-2-((4-(7-(((2S,5R)-5-(3-(2,2,2-trifluoroethyl)ureido)tetrahydro-2H-pyran-2-yl)methyl)-2,7-diazaspiro[3.5]nonan-2-yl)pyrimidin-5-yl)oxy)benzamide] was under 0.1 µM.
With `CCCNC(=O)N[C@@H]1CC[C@@H](CN2CCC3(CC2)CN(c2ncncc2Oc2ccc(F)cc2C(=O)N(CC)C(C)C)C3)OC1` [Example 38, N-Ethyl-5-fluoro-N-isopropyl-2-((4-(7-(((2S,5R)-5-(3-propylureido)tetrahydro-2H-pyran-2-yl)methyl)-2,7-diazaspiro[3.5]nonan-2-yl)pyrimidin-5-yl)oxy)benzamide], the IC50 lay in the range of 0.1 to 1 µM.
The figure for `CCNC(=O)N[C@@H]1CC[C@@H](CN2CCC3(CC2)CN(c2ncncc2Oc2ccc(F)cc2C(=O)N(CC)C(C)C)C3)OC1` [Example 39, N-Ethyl-2-((4-(7-(((2S,5R)-5-(3-ethylureido)tetrahydro-2H-pyran-2-yl)methyl)-2,7-diazaspiro[3.5]nonan-2-yl)pyrimidin-5-yl)oxy)-5-fluoro-N-isopropylbenzamide] is under 0.1 µM; for `C[C@H]1COCCN1C(=O)c1cc(F)ccc1Oc1cncnc1N1CC2(CCN(C[C@@H]3CC[C@@H](NS(=O)(=O)C4CC4)CO3)CC2)C1` [Example 40, N-((3R,6S)-6-((2-(5-(4-Fluoro-2-((S)-3-methylmorpholine-4-carbonyl)phenoxy)pyrimidin-4-yl)-2,7-diazaspiro[3.5]nonan-7-yl)methyl)tetrahydro-2H-pyran-3-yl)cyclopropanesulfonamide] it is 0.1 to 1 µM; for `CCN(C(=O)c1cc(F)ccc1Oc1cncnc1N1CC2(CCN(C[C@@H]3CC[C@@H](NC(=O)NCC(F)F)CO3)CC2)C1)C(C)C` [Example 41, 2-((4-(7-(((2S,5R)-5-(3-(2,2-Difluoroethyl)ureido)tetrahydro-2H-pyran-2-yl)methyl)-2,7-diazaspiro[3.5]nonan-2-yl)pyrimidin-5-yl)oxy)-N-ethyl-5-fluoro-N-isopropylbenzamide] it is 0.1 to 1 µM.
In the case of `CCN(C(=O)c1cc(F)ccc1Oc1cncnc1N1CC2(CCN(C[C@@H]3CC[C@@H](NC(=O)NCC4CC4)CO3)CC2)C1)C(C)C` [Example 42, 2-((4-(7-(((2S,5R)-5-(3-(Cyclopropylmethyl)ureido)tetrahydro-2H-pyran-2-yl)methyl)-2,7-diazaspiro[3.5]nonan-2-yl)pyrimidin-5-yl)oxy)-N-ethyl-5-fluoro-N-isopropylbenzamide], the IC50 lay in the range of 0.1 to 1 µM.
The value for `CCS(=O)(=O)N[C@@H]1CC[C@@H](CN2CCC3(CC2)CN(c2ncncc2Oc2ccc(F)cc2C(=O)N(CCC#N)C(C)C)C3)OC1` [Example 43, N-(2-Cyanoethyl)-2-((4-(7-(((2S,5R)-5-(ethylsulfonamido)tetrahydro-2H-pyran-2-yl)methyl)-2,7-diazaspiro[3.5]nonan-2-yl)pyrimidin-5-yl)oxy)-5-fluoro-N-isopropylbenzamide] was 0.1 to 1 µM.
The figure for `CCS(=O)(=O)N[C@@H]1CC[C@@H](CN2CCC3(CC2)CN(c2ncncc2Oc2ccc(F)cc2C(=O)N(C(C)C)C2CC(F)(F)C2)C3)OC1` [Example 44, N-(3,3-Difluorocyclobutyl)-2-((4-(7-(((2S,5R)-5-(ethylsulfonamido)tetrahydro-2H-pyran-2-yl)methyl)-2,7-diazaspiro[3.5]nonan-2-yl)pyrimidin-5-yl)oxy)-5-fluoro-N-isopropylbenzamide] is under 0.1 µM.
